Our source for the IC50 values is patent publication US20080286809A1, “Methods” (MEDICAL RESEARCH COUNCIL, priority 2005, published 2008).

For this assay, the target named is T1, WNK1 (Homo sapiens, UniProt Q9H4A3).
T1 construct: made in house
The assay is described as follows: ELISA assay for inhibitors of WNK activity: anti-phospho-SPAK-S373 detection of OSR1(D164A) phosphorylation. The class given is biochemical. As to conditions: non-radioactive ELISA; immobilised OSR1(D164A) substrate; anti-phospho-SPAK-S373 antibody; absorbance readout; read-out: IC50, Hypericin Inhibition of WNK1. The protocol: An example of a non-radioactive assay, suitable for screening of small drug-like compound libraries, has been developed using anti-phospho-SPAK antibodies to detect phosphorylation of WNK substrates SPAK or OSR1 in an ELISA format.
Anti-phospho-SPAK-S373 and anti-phospho-SPAK-T233 were anti-phospho-peptide antibodies raised in sheep for use in western blotting. They were evaluated for use in the ELISA format. Anti-phospho-SPAK-S373 was active in the ELISA with native OSR1 protein. SPAK and OSR1 are interchangeable in the assay as the amino acid sequences are very similar overall and have the same sequence flanking the phosphorylation sites. […] Wild type OSR1 had significant autophosphorylation/ATP hydrolytic activity, and could lead to depletion of substrates during the time course of the reaction.
The assay was performed in maxisorp (Nunc) 384-clear plates. OSR1(D164A), 30 ng/well, was coated overnight at 4° C. in Tris buffered saline (TBS) pH 7.4. […] Plates were read on an absorbance reader at […]. […]
The assay was tolerant to a wide range of ATP concentrations (1-1000 μM) and 1% DMSO (compound storage solvent). Compound interference by autofluorescence, quenching or absorbance is minimised as it is heterogeneous involving several wash steps. […]
(ELISA stands for enzyme-linked immunosorbent assay.)

T1 sequence (Q9H4A3 whole entry): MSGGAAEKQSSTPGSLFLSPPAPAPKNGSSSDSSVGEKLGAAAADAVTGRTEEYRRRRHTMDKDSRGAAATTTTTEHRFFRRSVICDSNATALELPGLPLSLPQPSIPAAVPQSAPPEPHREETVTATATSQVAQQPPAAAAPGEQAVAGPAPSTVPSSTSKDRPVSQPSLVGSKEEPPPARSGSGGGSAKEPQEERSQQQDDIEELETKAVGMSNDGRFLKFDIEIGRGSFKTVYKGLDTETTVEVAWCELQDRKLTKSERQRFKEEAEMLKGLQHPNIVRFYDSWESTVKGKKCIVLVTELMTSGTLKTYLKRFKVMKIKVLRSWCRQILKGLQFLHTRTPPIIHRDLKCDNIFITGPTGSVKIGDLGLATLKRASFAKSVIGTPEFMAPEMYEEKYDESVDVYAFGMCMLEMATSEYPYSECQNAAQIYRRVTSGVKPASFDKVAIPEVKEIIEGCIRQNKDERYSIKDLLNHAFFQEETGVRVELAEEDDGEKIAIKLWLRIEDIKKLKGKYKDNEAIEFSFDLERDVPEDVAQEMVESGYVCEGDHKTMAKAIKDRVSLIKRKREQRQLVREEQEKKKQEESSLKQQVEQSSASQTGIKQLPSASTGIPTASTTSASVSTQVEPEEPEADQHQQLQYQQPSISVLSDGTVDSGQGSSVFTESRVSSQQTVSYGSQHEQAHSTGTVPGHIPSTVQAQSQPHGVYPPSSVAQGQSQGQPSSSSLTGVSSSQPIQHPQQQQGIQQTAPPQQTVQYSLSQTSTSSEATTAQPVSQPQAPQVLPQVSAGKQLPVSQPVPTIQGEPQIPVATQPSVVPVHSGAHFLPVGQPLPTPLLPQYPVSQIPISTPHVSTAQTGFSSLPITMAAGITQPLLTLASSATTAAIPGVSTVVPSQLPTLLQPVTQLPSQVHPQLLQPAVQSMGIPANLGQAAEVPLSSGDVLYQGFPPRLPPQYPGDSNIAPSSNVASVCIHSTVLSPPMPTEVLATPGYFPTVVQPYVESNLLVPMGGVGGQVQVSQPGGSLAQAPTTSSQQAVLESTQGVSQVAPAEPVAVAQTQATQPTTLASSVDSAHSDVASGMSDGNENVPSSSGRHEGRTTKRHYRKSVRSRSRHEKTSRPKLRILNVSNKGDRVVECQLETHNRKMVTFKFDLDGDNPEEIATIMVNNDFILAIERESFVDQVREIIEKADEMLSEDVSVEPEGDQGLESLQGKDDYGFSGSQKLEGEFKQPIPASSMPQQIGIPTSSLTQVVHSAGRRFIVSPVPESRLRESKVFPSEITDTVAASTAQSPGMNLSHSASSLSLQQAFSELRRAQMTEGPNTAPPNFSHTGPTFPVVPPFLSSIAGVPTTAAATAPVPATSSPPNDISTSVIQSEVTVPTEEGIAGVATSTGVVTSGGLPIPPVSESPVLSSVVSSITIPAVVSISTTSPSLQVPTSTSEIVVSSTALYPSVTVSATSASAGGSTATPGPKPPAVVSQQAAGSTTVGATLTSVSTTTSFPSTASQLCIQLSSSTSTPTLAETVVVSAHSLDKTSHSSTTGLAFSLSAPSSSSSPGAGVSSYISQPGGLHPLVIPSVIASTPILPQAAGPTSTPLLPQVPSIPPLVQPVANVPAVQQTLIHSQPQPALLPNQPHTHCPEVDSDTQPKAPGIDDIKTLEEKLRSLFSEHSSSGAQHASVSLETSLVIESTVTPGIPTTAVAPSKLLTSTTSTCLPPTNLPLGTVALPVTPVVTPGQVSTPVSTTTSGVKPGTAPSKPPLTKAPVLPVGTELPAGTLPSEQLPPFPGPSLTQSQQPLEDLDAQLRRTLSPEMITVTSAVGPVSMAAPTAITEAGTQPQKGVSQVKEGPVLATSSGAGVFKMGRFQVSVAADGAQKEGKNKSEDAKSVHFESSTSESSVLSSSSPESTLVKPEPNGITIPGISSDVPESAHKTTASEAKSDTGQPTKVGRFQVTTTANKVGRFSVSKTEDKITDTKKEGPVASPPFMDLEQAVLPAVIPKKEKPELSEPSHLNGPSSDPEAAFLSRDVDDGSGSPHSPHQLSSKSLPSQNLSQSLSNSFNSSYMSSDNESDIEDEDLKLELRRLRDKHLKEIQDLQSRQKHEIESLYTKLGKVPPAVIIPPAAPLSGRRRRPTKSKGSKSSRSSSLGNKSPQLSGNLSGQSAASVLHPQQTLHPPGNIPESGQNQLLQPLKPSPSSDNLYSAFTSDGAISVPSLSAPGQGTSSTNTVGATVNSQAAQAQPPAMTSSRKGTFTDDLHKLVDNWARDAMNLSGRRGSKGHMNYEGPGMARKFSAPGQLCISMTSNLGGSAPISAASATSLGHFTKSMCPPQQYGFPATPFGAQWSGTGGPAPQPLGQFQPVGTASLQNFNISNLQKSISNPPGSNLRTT

A word on the IC50: it is the concentration needed to halve the response being measured. Take `Cc1cc(O)c2c(=O)c3c(O)cc(O)c4c5c(O)cc(O)c6c(=O)c7c(O)cc(C)c8c1c2c(c34)c(c78)c65` [Hypericin]: the IC50 is 1500 nM.
